Experimental findings from ChEMBL document CHEMBL1201862, “PubChem BioAssay data set” (2004) are described below.

The structures appear in SMILES notation. Calls of active or inactive are those of the source.

Assay [1] is described as follows: A2780 cell killing – plate reader, dry powder samples, cytotoxicity control, dose response (AID 743046). Format: functional, cell-based.
For assay [2], the target named is Paired box protein Pax-8 (Homo sapiens, UniProt Q06710). Briefly: PAX8 transcriptional activity inhibition in RMG-I – RMG-I cells, luciferase, cherry-pick, dose response (AID 687027).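 Also: luciferase reporter driven by Pax8 target thyroperoxidase promoter measured by SteadyGlo luminescence.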 It is filed as functional, cell-based.
Sequence of Paired box protein Pax-8 (Q06710 whole entry): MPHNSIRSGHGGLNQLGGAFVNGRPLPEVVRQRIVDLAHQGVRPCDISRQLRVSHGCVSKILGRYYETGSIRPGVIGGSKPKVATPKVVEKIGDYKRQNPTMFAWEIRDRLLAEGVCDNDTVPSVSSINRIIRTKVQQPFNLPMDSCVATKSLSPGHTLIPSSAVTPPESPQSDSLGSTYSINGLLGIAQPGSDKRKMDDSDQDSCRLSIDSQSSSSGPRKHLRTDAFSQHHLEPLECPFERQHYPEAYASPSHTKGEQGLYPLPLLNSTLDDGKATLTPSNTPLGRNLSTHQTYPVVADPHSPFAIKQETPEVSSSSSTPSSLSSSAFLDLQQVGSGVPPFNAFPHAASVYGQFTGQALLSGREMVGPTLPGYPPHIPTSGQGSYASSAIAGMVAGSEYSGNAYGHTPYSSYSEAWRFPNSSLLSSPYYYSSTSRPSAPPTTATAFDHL
The nature of assay [3]: reduced cellular PGC1a acetyl-lysine signal – cell-based, cherry-picked samples, dose response (AID 720514).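 Also: potency may reflect raised or lowered acetylation signal.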 It is filed as functional.
A short description of assay [4]: reduction of Shn3 3'UTR-driven luciferase in osteoblasts – cell-based, Clone20 osteoblasts, firefly luciferase, cherry-picked, dose response (AID 624132).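 Also: firefly luciferase luminescence from reporter carrying the Shn3 3'UTR in osteoblasts.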 Format: functional.
The nature of assay [5]: non-specific 3'UTR reporter inhibition in Clone20-Shn3RL – cell-based, Renilla luciferase, cherry-picked, counter-screen for Shn3 inhibitor project, dose response (AID 624133). Format: functional. For orientation: A counterscreen serves to expose hits that act by an unwanted route or on another target.
Assay [6] in a line: loss of viability in HepG2 cells – cell-based, CellTiter-Glo, cherry-picked, cytotoxicity control for Shn3 inhibitor project, dose response (AID 624134). It is filed as functional.
Assay [7] can be described thus: OVCAR8 cell viability loss – plate reader, dry powder samples, PAX8 project, dose response (AID 743197). Format: functional, cell-based. As to conditions: OVCAR-8.
The nature of assay [8]: OVCAR-3 cell viability loss – plate reader, dry powder samples, PAX8 inhibitor project, dose response (AID 743044). Format: functional, cell-based.

Take `C[C@@H]1CN([C@@H](C)CO)C(=O)Cc2cc(NC(=O)NC3CCCCC3)ccc2O[C@@H]1CN(C)Cc1ccc(-c2ccccc2)cc1`: the AC50 (usually the concentration at which the activity in the assay is half-maximal) was 0.296 µM (active) in assay [1] and 30.6 µM (active) in assay [2].

In the case of `COc1ccccc1NC(=O)Cn1c(C)cc(=O)c2cccc(OC)c21`, the AC50 was 35.8 µM (active) in assay [3], 3.16 µM (active) in assay [4], 4.46 µM (active) in assay [5] and 48.1 µM (active) in assay [6].

Turning to `C[C@@H]1CN([C@H](C)CO)C(=O)c2cc(NS(=O)(=O)c3cccs3)ccc2O[C@@H](C)CCCCO[C@H]1CN(C)Cc1ccc(C(F)(F)F)cc1`, the AC50 was > 70 µM (inactive) in assay [7] and 8.66 µM (active) in assay [2].

Consider `C[C@@H]1CCCCO[C@@H](CN(C)Cc2ccc(Cl)c(Cl)c2)[C@H](C)CN([C@H](C)CO)C(=O)c2cc(NC(=O)c3ccccc3)ccc2O1`, for which the AC50 was 33.8 µM (active) in assay [1], 27.5 µM (active) in assay [7], 14 µM (active) in assay [2] and 3.16 µM (active) in assay [8].
